From PMC7206119, “RIP1 inhibition blocks inflammatory diseases but not tumor growth or metastases” (Cell Death and Differentiation, 2019)

How the values were obtained:
Assay in all cases: biochemical
Design in all cases: Thermo Fisher SelectScreen kinase panel: Z'-LYTE and Adapta activity, LanthaScreen binding
EPHA8 = EPHA8 (Homo sapiens, UniProt P29322)
Procedure, shortened: (§1)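 Single-concentration panel: 10 µM GNE684 in KINOMEscan scanMAX binding (468 kinases) and in a 221-kinase panel run as Z'-LYTE/Adapta activity or LanthaScreen binding assays.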

SYK = SYK (Homo sapiens, UniProt P43405)
Procedure, shortened: as §1

PKC_delta = target: T1, PKC_delta (Homo sapiens, UniProt Q05655)
T1 construct: gene PRKCD
Procedure, shortened: as §1

FGFR3 = FGFR3 (Homo sapiens, UniProt P22607)
Procedure, shortened: as §1

PhK_gamma2 = target: T2, PhK_gamma2 (Homo sapiens, UniProt P15735)
T2 construct: gene PHKG2
Procedure, shortened: as §1

CaMKI_delta = target: T3, CaMKI_delta (Homo sapiens, UniProt Q8IU85)
T3 construct: gene CAMK1D
Procedure, shortened: as §1

FLT3 = FLT3 (Homo sapiens, UniProt P36888)
Procedure, shortened: as §1

PKC_theta = target: T4, PKC_theta (Homo sapiens, UniProt Q04759)
T4 construct: gene PRKCQ
Procedure, shortened: as §1

NEK6 = NEK6 (Homo sapiens, UniProt Q9HC98)
Procedure, shortened: as §1

CSF1R = CSF1R (Homo sapiens, UniProt P07333)
Procedure, shortened: as §1

MST2 = target: T5, MST2 (Homo sapiens, UniProt Q13188)
T5 construct: gene STK3
Procedure, shortened: as §1

TAO2 = target: T6, TAO2 (Homo sapiens, UniProt Q9UL54)
T6 construct: gene TAOK2
Procedure, shortened: as §1

p38_alpha(direct) = target: T7, p38_alpha(direct) (Homo sapiens, UniProt Q16539)
T7 construct: gene MAPK14; direct
Procedure, shortened: as §1

MELK = MELK (Homo sapiens, UniProt Q14680)
Procedure, shortened: as §1

MLK2 = target: T8, MLK2 (Homo sapiens, UniProt Q02779)
T8 construct: gene MAP3K10
Procedure, shortened: as §1

BRSK1 = BRSK1 (Homo sapiens, UniProt Q8TDC3)
Procedure, shortened: as §1

BMPR1A = BMPR1A (Homo sapiens, UniProt P36894)
Procedure, shortened: as §1

LTK = LTK (Homo sapiens, UniProt P29376)
Procedure, shortened: as §1

PAK3 = PAK3 (Homo sapiens, UniProt O75914)
Procedure, shortened: as §1

MLK1 = target: T9, MLK1 (Homo sapiens, UniProt P80192)
T9 construct: gene MAP3K9
Procedure, shortened: as §1

PIM1 = PIM1 (Homo sapiens, UniProt P11309)
Procedure, shortened: as §1

JNK1_alpha1 = target: T10, JNK1_alpha1 (Homo sapiens, UniProt P45983)
T10 construct: gene MAPK8; isoform alpha1
Procedure, shortened: as §1

ACVR2B = ACVR2B (Homo sapiens, UniProt Q13705)
Procedure, shortened: as §1

T7 sequence (Q16539 whole entry): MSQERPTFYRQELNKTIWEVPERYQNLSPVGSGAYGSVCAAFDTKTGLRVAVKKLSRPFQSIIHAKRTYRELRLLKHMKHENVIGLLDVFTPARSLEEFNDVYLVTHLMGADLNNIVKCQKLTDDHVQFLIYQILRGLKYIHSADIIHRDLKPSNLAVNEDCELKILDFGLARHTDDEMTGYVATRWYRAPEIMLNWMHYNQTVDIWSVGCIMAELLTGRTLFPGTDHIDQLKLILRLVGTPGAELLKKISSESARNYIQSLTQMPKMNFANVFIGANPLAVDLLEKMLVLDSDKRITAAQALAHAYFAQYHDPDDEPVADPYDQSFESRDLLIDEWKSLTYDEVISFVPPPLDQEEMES
T10 sequence (P45983 whole entry, canonical isoform): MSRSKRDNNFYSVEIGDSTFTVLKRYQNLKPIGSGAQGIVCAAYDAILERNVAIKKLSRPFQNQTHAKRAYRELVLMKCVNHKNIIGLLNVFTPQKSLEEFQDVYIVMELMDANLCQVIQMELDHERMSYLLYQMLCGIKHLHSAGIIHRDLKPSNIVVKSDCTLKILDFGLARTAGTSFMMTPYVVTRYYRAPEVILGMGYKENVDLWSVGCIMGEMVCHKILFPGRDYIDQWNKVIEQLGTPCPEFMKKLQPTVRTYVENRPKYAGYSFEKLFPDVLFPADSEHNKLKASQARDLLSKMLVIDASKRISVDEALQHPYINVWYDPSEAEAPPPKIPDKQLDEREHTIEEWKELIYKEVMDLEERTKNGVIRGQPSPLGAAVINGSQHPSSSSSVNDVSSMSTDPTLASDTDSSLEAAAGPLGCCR
MELK, sequence (Q14680 whole entry): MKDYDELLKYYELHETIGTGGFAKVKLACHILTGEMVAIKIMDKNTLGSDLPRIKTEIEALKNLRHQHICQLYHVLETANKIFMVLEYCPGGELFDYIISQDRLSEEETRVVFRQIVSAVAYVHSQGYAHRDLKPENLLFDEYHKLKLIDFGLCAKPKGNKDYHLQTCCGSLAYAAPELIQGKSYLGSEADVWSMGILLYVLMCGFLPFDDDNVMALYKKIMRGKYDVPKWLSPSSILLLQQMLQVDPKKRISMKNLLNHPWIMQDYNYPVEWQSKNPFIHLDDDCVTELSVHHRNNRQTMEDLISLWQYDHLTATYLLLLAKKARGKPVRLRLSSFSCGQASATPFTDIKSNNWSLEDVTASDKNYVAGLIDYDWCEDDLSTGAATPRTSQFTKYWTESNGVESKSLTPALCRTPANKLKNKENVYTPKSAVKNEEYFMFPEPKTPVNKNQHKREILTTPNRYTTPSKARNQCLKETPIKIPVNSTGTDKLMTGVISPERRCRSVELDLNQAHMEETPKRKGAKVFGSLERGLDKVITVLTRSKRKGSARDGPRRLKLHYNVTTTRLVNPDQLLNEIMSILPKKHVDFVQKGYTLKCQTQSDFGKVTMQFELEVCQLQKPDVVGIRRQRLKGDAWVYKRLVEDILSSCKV
PIM1, sequence (P11309 whole entry): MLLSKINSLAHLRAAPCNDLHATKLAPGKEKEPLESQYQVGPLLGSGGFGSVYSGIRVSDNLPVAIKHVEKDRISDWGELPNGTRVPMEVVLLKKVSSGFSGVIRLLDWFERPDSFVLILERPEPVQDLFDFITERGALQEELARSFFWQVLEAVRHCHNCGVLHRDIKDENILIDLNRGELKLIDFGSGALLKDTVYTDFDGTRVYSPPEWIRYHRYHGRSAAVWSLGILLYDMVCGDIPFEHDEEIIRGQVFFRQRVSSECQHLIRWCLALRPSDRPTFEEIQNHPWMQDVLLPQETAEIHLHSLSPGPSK
NEK6, sequence (Q9HC98 whole entry): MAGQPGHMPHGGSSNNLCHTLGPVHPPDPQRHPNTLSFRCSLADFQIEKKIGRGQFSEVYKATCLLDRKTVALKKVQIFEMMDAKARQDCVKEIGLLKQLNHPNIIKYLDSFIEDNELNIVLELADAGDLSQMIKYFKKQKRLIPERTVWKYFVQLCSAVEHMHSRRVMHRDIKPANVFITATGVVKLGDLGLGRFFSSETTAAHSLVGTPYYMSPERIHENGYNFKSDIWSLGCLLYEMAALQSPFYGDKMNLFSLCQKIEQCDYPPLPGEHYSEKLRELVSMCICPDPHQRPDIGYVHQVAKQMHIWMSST
T4 sequence (Q04759 whole entry): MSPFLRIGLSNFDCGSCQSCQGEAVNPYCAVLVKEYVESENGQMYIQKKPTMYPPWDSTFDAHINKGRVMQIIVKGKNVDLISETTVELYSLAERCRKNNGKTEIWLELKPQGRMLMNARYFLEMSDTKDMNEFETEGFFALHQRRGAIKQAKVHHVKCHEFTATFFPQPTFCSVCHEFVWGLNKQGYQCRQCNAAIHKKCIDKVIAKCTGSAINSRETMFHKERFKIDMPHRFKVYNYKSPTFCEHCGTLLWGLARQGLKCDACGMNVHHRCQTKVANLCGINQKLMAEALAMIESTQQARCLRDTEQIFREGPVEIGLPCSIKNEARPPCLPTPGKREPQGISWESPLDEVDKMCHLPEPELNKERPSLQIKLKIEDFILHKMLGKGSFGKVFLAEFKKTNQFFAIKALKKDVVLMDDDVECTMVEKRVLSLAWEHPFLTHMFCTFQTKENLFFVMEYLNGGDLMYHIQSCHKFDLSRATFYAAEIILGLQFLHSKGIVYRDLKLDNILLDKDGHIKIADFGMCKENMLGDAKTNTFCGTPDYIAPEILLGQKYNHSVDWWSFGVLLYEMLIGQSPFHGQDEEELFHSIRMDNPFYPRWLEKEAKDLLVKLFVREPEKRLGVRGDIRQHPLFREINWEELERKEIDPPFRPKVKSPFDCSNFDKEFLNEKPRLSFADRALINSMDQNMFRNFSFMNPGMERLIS
EPHA8, sequence (P29322 whole entry): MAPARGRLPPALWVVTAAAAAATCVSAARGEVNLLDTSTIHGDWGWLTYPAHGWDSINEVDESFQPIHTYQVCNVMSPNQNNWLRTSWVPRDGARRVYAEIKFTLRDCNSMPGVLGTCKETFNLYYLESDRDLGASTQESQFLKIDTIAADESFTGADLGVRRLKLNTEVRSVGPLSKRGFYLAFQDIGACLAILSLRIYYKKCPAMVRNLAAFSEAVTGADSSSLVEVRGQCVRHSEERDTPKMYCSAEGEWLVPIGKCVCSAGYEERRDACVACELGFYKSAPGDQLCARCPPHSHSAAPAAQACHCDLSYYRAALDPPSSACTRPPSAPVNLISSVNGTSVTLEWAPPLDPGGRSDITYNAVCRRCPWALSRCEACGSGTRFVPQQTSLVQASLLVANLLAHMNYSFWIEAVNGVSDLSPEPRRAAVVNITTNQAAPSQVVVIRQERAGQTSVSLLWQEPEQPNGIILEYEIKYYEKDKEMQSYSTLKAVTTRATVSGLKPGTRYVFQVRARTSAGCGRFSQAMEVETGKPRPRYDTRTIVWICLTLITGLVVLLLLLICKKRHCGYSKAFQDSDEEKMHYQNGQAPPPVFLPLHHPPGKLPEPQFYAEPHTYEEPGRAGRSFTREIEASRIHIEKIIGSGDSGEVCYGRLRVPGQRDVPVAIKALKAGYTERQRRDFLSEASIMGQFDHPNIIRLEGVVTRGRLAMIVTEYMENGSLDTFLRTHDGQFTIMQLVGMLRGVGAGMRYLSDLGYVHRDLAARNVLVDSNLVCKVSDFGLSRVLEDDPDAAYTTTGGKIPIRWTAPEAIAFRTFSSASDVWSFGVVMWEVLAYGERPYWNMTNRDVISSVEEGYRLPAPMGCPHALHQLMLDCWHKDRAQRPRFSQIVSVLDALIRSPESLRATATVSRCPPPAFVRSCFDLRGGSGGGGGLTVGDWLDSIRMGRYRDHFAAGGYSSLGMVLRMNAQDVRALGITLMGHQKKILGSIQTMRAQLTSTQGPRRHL
PAK3, sequence (O75914 whole entry): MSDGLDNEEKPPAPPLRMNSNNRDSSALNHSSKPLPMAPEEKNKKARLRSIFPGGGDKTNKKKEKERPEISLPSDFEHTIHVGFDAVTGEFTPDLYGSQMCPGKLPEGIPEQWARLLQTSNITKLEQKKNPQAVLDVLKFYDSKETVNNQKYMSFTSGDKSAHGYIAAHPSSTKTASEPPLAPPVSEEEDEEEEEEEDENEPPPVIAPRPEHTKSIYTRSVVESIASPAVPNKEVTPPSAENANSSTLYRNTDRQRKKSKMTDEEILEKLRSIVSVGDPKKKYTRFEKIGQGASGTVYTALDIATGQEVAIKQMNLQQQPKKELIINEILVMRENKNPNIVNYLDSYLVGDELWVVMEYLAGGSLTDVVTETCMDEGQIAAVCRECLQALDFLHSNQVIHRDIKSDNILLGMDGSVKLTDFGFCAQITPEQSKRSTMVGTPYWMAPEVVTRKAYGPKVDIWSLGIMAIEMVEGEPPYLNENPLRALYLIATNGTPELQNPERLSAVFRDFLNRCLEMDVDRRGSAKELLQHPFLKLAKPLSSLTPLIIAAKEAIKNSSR
ACVR2B, sequence (Q13705 whole entry): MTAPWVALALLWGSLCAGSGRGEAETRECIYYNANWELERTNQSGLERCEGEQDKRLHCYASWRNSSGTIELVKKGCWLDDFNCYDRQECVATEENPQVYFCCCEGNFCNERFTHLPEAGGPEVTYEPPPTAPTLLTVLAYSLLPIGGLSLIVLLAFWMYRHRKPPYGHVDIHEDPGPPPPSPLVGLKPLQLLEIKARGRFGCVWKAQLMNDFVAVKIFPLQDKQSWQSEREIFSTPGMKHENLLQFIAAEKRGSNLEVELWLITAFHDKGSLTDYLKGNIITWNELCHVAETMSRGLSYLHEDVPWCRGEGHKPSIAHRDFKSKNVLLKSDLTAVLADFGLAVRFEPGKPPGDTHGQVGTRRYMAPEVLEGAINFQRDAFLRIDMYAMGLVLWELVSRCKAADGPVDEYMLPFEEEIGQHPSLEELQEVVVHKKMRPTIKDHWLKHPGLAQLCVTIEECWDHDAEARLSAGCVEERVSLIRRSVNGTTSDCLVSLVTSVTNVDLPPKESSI

## COc1cc2c(cn1)N(C)C(=O)[C@@H](NC(=O)c1nc3n(n1)[C@H](c1ccccc1)CC3)CC2 [GNE684, (S)-N-((S)-7-methoxy-1-methyl-2-oxo-2,3,4,5-tetrahydro-1H-pyrido[3,4-b]azepin-3-yl)-5-phenyl-6,7-dihydro-5H-pyrrolo[1,2-b][1,2,4]triazole-2-carboxamide]
EPHA8
  inhibition at 10 µM: 5.5%
SYK
  inhibition at 10 µM: -1.5%
PKC_delta
  inhibition at 10 µM: 8%
FGFR3
  inhibition at 10 µM: -1.5%
PhK_gamma2
  inhibition at 10 µM: 1%
CaMKI_delta
  inhibition at 10 µM: 7.5%
FLT3
  inhibition at 10 µM: 10%
PKC_theta
  inhibition at 10 µM: -5%
NEK6
  inhibition at 10 µM: -2%
CSF1R
  inhibition at 10 µM: 2%
MST2
  inhibition at 10 µM: 5%
TAO2
  inhibition at 10 µM: 1%
p38_alpha(direct)
  inhibition at 10 µM: 3.5%
MELK
  inhibition at 10 µM: 13%
MLK2
  inhibition at 10 µM: 0%
BRSK1
  inhibition at 10 µM: 2.5%
BMPR1A
  inhibition at 10 µM: -4.5%
LTK
  inhibition at 10 µM: 7.5%
PAK3
  inhibition at 10 µM: 6%
MLK1
  inhibition at 10 µM: 7.5%
PIM1
  inhibition at 10 µM: 1%
JNK1_alpha1
  inhibition at 10 µM: -5.5%
ACVR2B
  inhibition at 10 µM: 5%
